From patent publication US11369568B2, “Microparticles comprising a sulphur-containing compound” (NOVABIOTICS LIMITED, priority 2016, dated 2022) come the findings set out here.

The subject of one assay is P. aeruginosa ATCC27853. Briefly: Mouse IN neutropenic lung burden model, Lynovex/Lactose study. Type of assay: in vivo, Pseudomonas aeruginosa. Conditions: CD1 mice, 24 h post-infection. On the procedure: Animals were immunosuppressed/pre-conditioned with either 200 mg/kg or 150 mg/kg cyclophosphamide. Lynovex, chemical name cysteamine, and vehicle were either prepared either as Lynovex and lactose vehicle, or Lynovex and mannitol-based vehicle (both provided by Upperton (Upperton product)). These were prepared for treatment and vehicle-control alone respectively, and in combination. Tobramycin was prepared as an inhalation formulation in lactose. All treatments were administered using a Penn Century device. Phosphate buffered saline (PBS) and Pseudomonas selective agar were required for bacterial tissue burden.
(§1) Male CD1 mice (n =6 for treatment groups, plus five in pre-treatment group, totalling 35 mice) were used in this study. On day −4, the mice were immunosuppressed/pre-conditioned with 200 mg/kg cyclophosphamide intraperitoneally; and with 150 mg/kg cyclophosphamide intraperitoneally on day-1. An infection was established with P. aeruginosa ATCC27853, with an inoculum of 5×10^6 cfu/ml, administered intranasally in a volume of 40 μl following anaesthetisation with a ketamine/xylazine anaesthetic cocktail for 15 minutes, for the Lynovex prepared in lactose study, and an inoculum of 4×10^6 for the Upperton Lynovex product.
Treatment. All treatments were administered intratracheally using a Penn Century device.
Lynovex (cysteamine) was administered at 1.5 mg alone, and in combination with lactose at the following concentrations: Lynovex 0.75 mg+2.25 mg lactose powder, Lynovex 1.5 mg+1.5 mg lactose powder, Lynovex 2.25 mg+0.75 mg, along with a vehicle only control of 3 mg lactose. In addition, Tobramycin at 188 μg/dose was administered, as an inhaled formulation which was mixed with lactose to aid measurement. The treatments were administered approximately 5 minutes after infection.
The lung tissue burden of each animal, at the clinical end point of 24 h post-infection, was determined. The lungs were homogenised in 2 ml PBS, serially diluted in PBS and plated onto Pseudomonas selective agar before quantification after 24-48 h at 37° C.

A short description of assay [1]: Mouse weights recorded before and after infection. The assay is classed as in vivo. Conditions: infected CD1 mice, Upperton product study (FIG. 6). On the procedure:
as §1
In a different study, Lynovex was administered at the following doses: 3 mg 5% Lynovex and 3 mg 10% Lynovex. Lynovex in combination with Tobramycin as follows: 3 mg 5% Lynovex+Tobramycin 0.188 mg in 1.5 mg vehicle, 3 mg 10% Lynovex+Tobramycin 0.188 mg in 1.5 mg Vehicle (mannitol-based, provided by Upperton) and a Tobramycin only control (0.188 mg/dose in lactose vehicle). The treatments were administered once approximately 10 minutes after infection.
Additionally, mouse weights were recorded before and after infection. Mice treated with vehicle, Lynovex monotherapy or Tobramycin monotherapy lost weight following infection. […]

Structures are written as SMILES.

Turning to `NCCS` [Lynovex, cysteamine], the “lung burden compared to vehicle” value in the assay on P. aeruginosa ATCC27853 (1.5 mg intratracheal, P=0.0072) is listed as “reduced the lung burden”; in the assay on P. aeruginosa ATCC27853 (2.25 mg intratracheal, P=0.0349), “reduced the lung burden”.
As to `NC[C@H]1O[C@H](O[C@H]2[C@H](O)[C@@H](O[C@H]3O[C@H](CO)[C@@H](O)[C@H](N)[C@H]3O)[C@H](N)C[C@@H]2N)[C@H](N)C[C@@H]1O` [Tobramycin], the “mouse weight following infection” value in assay [1] is on record as “lost weight”. Also, the “lung burden compared with vehicle-treated mice” value in the assay on P. aeruginosa ATCC27853 (0.188 mg inhalation formulation, intratracheal, P=0.0097 Kruskal Wallis test) is “statistically significant reduction in lung burden”.
